In ChEMBL document CHEMBL1201862, “PubChem BioAssay data set” (2004):
The source made the active and inactive calls.

Legend:
[1] = Counterscreen for IDE inhibitors: Luminescence-based cell-based high throughput dose response assay to identify compounds that are cytotoxic to HEK cells. [Related pubchem assays: 434962 (Primary screen (IDE inhibitors in singlicate)), 449730 (Counterscreen (Cytotoxicity in triplicate)), 435028 (Confirmation (IDE inhibitors in triplicate)) …; type: functional; settings: HEK293
[2] = Luminescence-based cell-based high throughput dose response assay to identify activators of the DAF-12 from the parasite S. stercoralis (ssDAF-12).; type: functional
[3] = biological target: T1, Oxysterols receptor LXR-beta (Homo sapiens, UniProt P55055); type: functional, cell-based;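 further: agonist activity at LXR measured by a cell-based luminescence readout across a dose range, run as a counterscreen for daf-12 agonists; HEK293 cells with Gal4-LXR fusion and GAL4-driven luciferase reporter; potency for activation of Gal4-LXR reporter so compounds are agonists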
T1 sequence (P55055 whole entry): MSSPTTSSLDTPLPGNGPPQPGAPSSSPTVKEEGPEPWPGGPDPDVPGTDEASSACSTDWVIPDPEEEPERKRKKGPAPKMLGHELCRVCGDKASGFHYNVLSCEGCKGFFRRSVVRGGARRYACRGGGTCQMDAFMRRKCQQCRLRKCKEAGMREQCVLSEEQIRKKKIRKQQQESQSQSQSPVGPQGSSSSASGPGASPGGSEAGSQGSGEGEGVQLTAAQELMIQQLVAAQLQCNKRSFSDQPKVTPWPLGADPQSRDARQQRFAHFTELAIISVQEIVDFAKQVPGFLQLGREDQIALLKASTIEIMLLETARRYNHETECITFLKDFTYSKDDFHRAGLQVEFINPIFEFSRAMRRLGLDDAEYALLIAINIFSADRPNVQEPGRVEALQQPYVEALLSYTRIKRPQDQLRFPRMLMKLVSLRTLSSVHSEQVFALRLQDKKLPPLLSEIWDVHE

[4] = biological target: Serine/threonine-protein phosphatase PP1-alpha catalytic subunit (Homo sapiens, UniProt P62136); experiment: inhibition of protein phosphatase 1 activity – biochemical, fluorescence, dose response (AID 2394)
Chain of Serine/threonine-protein phosphatase PP1-alpha catalytic subunit (P62136 whole entry): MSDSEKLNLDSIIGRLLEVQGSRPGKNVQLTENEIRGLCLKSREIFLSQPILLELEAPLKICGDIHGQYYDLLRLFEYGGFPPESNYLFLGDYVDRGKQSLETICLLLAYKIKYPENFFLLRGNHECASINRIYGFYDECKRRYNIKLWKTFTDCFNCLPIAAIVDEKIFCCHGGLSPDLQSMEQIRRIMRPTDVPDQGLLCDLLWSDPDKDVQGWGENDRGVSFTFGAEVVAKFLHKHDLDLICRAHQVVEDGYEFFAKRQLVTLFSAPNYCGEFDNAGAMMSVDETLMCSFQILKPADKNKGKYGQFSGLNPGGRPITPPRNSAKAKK

[5] = biological target: Serine/threonine-protein phosphatase (Homo sapiens, UniProt Q9BPW0); experiment: inhibition of protein phosphatase 5 activity – biochemical, fluorescence, dose response (AID 2395)
Chain of Serine/threonine-protein phosphatase (Q9BPW0 whole entry): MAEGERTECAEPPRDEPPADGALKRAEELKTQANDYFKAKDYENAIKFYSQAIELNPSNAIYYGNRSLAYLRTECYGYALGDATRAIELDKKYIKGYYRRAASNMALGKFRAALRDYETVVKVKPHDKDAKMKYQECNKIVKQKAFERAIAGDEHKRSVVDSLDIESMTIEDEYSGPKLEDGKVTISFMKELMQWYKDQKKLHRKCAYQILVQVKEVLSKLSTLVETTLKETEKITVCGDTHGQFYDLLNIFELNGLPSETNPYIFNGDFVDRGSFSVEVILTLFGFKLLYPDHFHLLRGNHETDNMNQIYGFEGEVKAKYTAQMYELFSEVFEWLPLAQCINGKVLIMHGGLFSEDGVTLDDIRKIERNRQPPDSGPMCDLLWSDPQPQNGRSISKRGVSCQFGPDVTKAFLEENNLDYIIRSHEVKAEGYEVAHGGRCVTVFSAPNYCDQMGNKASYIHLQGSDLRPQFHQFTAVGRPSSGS

[6] = biological target: T2, Apoptotic protease-activating factor 1 (Homo sapiens, UniProt O14727); type: functional
T2 sequence (O14727 whole entry): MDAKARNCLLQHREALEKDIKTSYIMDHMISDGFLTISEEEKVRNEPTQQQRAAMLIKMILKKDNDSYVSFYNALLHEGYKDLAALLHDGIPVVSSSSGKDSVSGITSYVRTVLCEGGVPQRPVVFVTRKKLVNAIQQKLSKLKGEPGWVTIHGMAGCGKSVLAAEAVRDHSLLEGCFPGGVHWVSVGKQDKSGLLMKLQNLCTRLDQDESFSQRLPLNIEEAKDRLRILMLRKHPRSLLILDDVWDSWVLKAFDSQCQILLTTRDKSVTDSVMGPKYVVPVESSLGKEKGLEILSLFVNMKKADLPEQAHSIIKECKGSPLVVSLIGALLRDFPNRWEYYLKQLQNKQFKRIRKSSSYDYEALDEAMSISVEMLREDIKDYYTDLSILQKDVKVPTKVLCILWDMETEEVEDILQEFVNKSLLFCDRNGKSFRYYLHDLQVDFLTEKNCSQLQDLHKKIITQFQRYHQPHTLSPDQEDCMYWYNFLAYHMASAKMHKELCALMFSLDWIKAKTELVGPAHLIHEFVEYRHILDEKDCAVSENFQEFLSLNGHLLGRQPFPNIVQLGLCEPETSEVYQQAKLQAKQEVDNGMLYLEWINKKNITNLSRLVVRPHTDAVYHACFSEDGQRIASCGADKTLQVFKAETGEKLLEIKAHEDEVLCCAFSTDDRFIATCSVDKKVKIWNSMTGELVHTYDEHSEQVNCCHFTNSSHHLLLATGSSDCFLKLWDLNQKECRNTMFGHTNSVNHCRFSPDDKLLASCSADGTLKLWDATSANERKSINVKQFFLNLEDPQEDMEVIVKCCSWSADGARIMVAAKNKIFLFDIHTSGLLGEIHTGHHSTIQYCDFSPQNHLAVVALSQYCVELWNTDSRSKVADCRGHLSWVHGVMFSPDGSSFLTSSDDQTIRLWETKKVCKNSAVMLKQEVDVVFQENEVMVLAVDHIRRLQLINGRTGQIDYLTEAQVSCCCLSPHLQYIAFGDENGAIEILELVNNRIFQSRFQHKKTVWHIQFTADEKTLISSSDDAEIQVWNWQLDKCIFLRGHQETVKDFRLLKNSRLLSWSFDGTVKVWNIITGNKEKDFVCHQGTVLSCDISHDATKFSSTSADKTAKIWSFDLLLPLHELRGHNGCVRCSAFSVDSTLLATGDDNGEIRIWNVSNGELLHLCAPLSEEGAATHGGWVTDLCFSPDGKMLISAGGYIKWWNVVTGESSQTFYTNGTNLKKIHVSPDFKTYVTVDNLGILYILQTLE

Row | IC50 [4] | IC50 [5] | IC50 [6] | SMILES | IC50 [1] | IC50 [2] | EC50 [3]
1 | – | – | – | C/C(=N\c1cccc(C)c1)c1sc2ccccc2c1O | 43.1 µM (not active) | > 67.6 µM (inactive) | > 67.6 µM (inactive)
2 | > 67 µM (not active) | 4.01 µM (active) | 2.36 µM (active) | COc1ccc(/C=N/Nc2cc(N(C)C)nc(N(C)C)n2)cc1 | – | – | –
